Structures can show the parent of a compound that is named as a salt. Where two headings read alike, the source gives them in different places.
What was measured:
[1] = tested on: rat cardiac myoblasts (H9c2); assay: Protection against H2O2-induced cell death in cardiomyocytes, Alamar Blue; type: cell-based; conditions: concentration(s) giving >50% protection
Experimental: C. Measurement of Protective Activity Against Oxidative Stress in Cell Cultures
Compounds of the invention were tested for their potential to protect against cell death induced by oxidative stress in a cell line derived from rat cardiac myoblasts (H9c2) (Hescheler et al., 1991). Cells were cultured in Dulbecco's Modified Eagle's Medium (DMEM), 4500 mg/L D-glucose with 10% foetal calf serum (FCS), 10000 U/mL penicillin, […] streptomycin and 25 μg/mL Amphotericin B at 37° C. with 95% air and 5% CO2. One day prior to the measurement, cells were seeded in 96 well-plates at a density of 5,000 cells/well and incubated with 100 μM H2O2 for 1 h. […] Cells were incubated with different compounds of the invention in several concentrations ranging from 0.0001-100 μM, for 1, 4 or 7 h prior to addition of H2O2. Cell viability was measured by means of Alamar Blue (AbD Serotec, BUF012A). In order to compare the protective effect of the compounds this degree of cell death was normalized to 100% in each experiment. The effect of the drugs is expressed as percent reduction of this value.

[2] = Radical scavenging, glucose oxidase/luminol luminescence; type: biochemical; conditions: concentration reducing luminescence/radical by 50%; mean ± SD, three independent experiments
Experimental: A. Measurement of Radical Scavenging
A mixture comprising glucose oxidase (GO), luminol, sodium selenite [IV] ([…]) and cobalt [II] (Co^+2) all in Hank's Balance Salt Solution (HBSS) was used (Ginsburg et al, 2004). The production of H2O2 produces a burst of luminescence within 30-60 sec, which lasts for 7-10 min. The luminescence involves oxidation of SEL+5 to it SEL+6 and also the generation of oxidants, which are catalyzed by Co^+2. This method mimics infection and inflammation conditions in which there is an accumulation of several oxidant species. This method provides a source of several radicals. Reduction in luminescence by the compounds is due to their ability to sequester radicals and was measured after addition of several concentrations of each compound. The concentration of each compound that reduced the luminescence by 50% was calculated.

AChE = target: T1, AChE (UniProt P23795); type: biochemical, human or bovine erythrocytes; conditions: Table 3; 120 min incubation; read-out: IC50 AChE 120 min
T1 sequence (P23795 1-613): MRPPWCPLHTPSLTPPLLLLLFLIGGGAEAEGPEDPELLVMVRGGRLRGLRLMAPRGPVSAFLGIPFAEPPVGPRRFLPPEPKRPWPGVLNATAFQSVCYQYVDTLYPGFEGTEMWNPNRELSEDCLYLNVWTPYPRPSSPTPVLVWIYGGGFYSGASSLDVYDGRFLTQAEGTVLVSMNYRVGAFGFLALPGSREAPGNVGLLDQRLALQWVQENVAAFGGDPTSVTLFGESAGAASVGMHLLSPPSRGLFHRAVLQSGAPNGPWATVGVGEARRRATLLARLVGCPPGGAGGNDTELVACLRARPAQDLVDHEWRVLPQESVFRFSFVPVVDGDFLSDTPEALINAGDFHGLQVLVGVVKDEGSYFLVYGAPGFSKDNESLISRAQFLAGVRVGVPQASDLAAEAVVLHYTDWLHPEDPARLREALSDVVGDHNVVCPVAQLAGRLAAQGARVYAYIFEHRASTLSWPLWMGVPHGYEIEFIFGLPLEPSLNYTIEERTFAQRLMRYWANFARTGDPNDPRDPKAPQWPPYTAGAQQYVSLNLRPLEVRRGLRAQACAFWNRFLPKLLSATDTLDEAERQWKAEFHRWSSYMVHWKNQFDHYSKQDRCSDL
Experimental: (§1) B. Measurement of Acetylcholinesterase (AChE) and Butylcholinesterase (BuChE) Inhibition In Vitro
(§2) The enzyme was incubated at 37° C. with 6-10 concentrations of the compounds tested and samples were collected at 15, 30, 60 and 120 min Aliquots were transferred to an Elisa multiscan microplate reader (Labsystems) at 15-60 sec time intervals for the determination of residual AChE activity, with Ascent PC software. […] The % inhibition of AChE by each concentration was calculated by comparison with the activity of the enzyme in the absence of drug. […] BuChE-inhibitory activity was determined as described above using BuChE (Sigma Israel) with butylthiocholine iodide (BuTh) 0.075M as a substrate.

BuChE = target: T2, BuChE (UniProt P81908); type: biochemical, human or equine serum; conditions: read-out: IC50 BuChE 120 min; Table 3; 120 min incubation
T2 construct: 120 min incubation; BuChE IC50
Experimental: as §1, §2

[3] = tested on: TNF-α, BV2 mouse microglial cells; assay: TNF-α reduction in LPS-stimulated BV2 microglia; type: cell-based; conditions: for Reduction in TNF-α levels, BV2 Microglia range: concentration range, None = no reduction up till 100 nM
Experimental: (§3) The BV2 mouse microglial cells were created by infecting primary mouse microglia with v-raf/v-myc oncogen-carrying retrovirus and donated by Dr. Sigal Fleisher—Berkovich (Ben-Gurion University of the Negev). The cells were cultured in RPMI 1640 containing 0.4 mM L-Glutamine, 10% FCS, 100 units/ml penicillin, 100 μg/ml streptomycin and maintained in a humidified incubator at 37° C. with 5% CO2. For measurement of the effect of compounds on the release of NO the cells were seeded in a density of 80,000 cells/ml and confluence of about 60%, and incubated with test compounds (in the absence of FCS) for […] All the medium was removed and fresh medium containing FCS and LPS (10 μg/ml) added and the cells maintained at 37° C. for 24 h. The release of NO into the medium was determined by measurement of nitrite levels using Griess reagent reaction. For measurement of protein levels of cytokines cells were seeded in a density of 80,000 and incubated with test compounds (in the absence of FCS) and then with LPS as described above. The medium was centrifuged and supernatants collected after 6 h for TNF-α (Biolegend) and after 20 h for IL-6 (Biolegend).

TNF-α, RAW 264.7 cells = assay: TNF-α reduction in LPS-stimulated RAW 264.7 macrophages; type: cell-based, mouse
[4] = tested on: NO, BV2 mouse microglial cells; assay: NO reduction in LPS-stimulated BV2 microglia; type: cell-based; conditions: concentration range; None = no reduction up till 100 nM
Experimental: as §3

NO, RAW 264.7 cells = assay: NO reduction in LPS-stimulated RAW 264.7 macrophages; type: cell-based, mouse
[5] = tested on: ChE (AChE, BuChE) in plasma, muscle, spleen, brain; conditions: after ip and or oral administration in mice
Experimental: E. Acetylcholinesterase (AChE) and Butylcholinesterase (BuChE) Inhibition Ex Vivo
Compounds of the invention or saline were administrated by intraperitoneal (ip) injection or gavage to groups of 6-7 male ICR or Balb C mice (5-6 weeks of age). The mice were sacrificed 15, 30, 60 or 120 min after drug administration and the brain (minus cerebellum), spleen, and muscle were rapidly removed, weighed and put on ice. Blood was also collected in heparinised tubes, centrifuged at 14000 rpm at room temperature for 4 mM to provide plasma. Phosphate buffer pH 7 was added to each tissue to produce concentrations of 1 mg/mL for brain and spleen and 8 mg/mL for muscle. The tissues were homogenised in cold phosphate buffer pH 7 containing 0.1% Triton and centrifuged at 14000 rpm. Aliquots of plasma and the supernatant of all tissues were incubated with AcTh or BuTh and DTNB in phosphate buffer pH 7 and the rate of development of the yellow colour was measured as described above. Enzyme activity was measured for each time and drug concentration and percent inhibition of the AChE or BuChE activity was calculated by comparison with that of control mice injected with saline. Results are represented as p moles acetylthiocholine or butythiocholine hydrolysed/min/gm tissue.

Radical scavenging, Sin1 = type: biochemical; conditions: mean ± SD, three independent experiments
[6] = Mus musculus, RAW264.7, 6 h, read-out: Reduction in TNF-α levels, RAW Macrophages % peak reduction
[7] = concentration range; None = no reduction up till 100 nM
[8] = cells in μM, no effect ≦ 100 μM given as >100

CCCCN(C)C(=O)Oc1ccc2c(c1)NCC2CCC(=O)OC (stereo not shown) [AN-677, 3-(2-(Methoxycarbonyl)ethyl)-1-indoline-6-yl butylmethylcarbamate hydrochloride]
Cardiomyocte cell line Conc′ >50% protection H2O2 Alamar blue ([1]; cells in nM): 1 to 10 nM | IC50 [2]: 24.1 ± 0.18 µM | IC50 (AChE): 62.3 µM | IC50 (BuChE): 404 µM

CCN(C)C(=O)Oc1ccc2c(c1)NCC2CCC(=O)O (stereo not shown) [AN-681, 3-(6-(Ethyl(methyl)carbamoyloxy)indolin-3-yl) propanoic acid hydrochloride]
Reduction in TNF-α levels, BV2 Microglia range [3]: None | Emax (TNF-α, RAW 264.7 cells; [6]): 29.2 ± 5.6% | Reduction in TNF-α levels, RAW Macrophages range (TNF-α, RAW 264.7 cells; [7]): 0.1 to 100 nM | Reduction in NO levels by at >20%, BV2 Microglia range [4]: None | IC50 [2]: 1.14 ± 0.09 µM | IC50 (BuChE): 10 µM | Emax (NO, RAW 264.7 cells; Mus musculus, RAW264.7, 24 h, read-out: Reduction in NO levels, RAW Macrophages % peak reduction): 50.1 ± 4.1% | Reduction in NO levels by at >20%, RAW Macrophages range (NO, RAW 264.7 cells; concentration range, None = no reduction up till 100 nM): 10^−1-100 nM

CCN(C)C(=O)Oc1ccc2c(c1)NCC2CCC(=O)OC.O=C(O)CC(O)(CC(=O)O)C(=O)O (stereo not shown) [AN-878, 6-(Ethyl(methyl)carbamoyloxy)-3-(3-methoxy-3-oxopropyl)indolinium citrate]
ChE inhibition in plasma, muscle, and spleen [5]: inhibited ChE

COC(=O)CCC1CNc2cc(OC(=O)N(C)c3ccc(OC)cc3)ccc21 (stereo not shown) [AN-685, Methyl 3-(6-((4-methoxyphenyl)(methyl)carbamoyloxy)indolin-3-yl)propanoate hydrochloride]
Cardiomyocte cell line Conc′ >50% protection H2O2 Alamar blue ([1]; cells in nM): 0.001 to 0.1 nM | IC50 [2]: 3.41 ± 0.02 µM | IC50 (BuChE): 54 µM

CCN(C)C(=O)Oc1cccc2c1C(CCC(=O)OC)CN2 (stereo not shown) [AN-827, 3-(2-(Methoxycarbonyl)ethyl)indolin-4-yl ethylmethylcarbamate hydrochloride]
Reduction in TNF-α levels, BV2 Microglia % peak reduction [3]: 38.5 ± 3.2% | Reduction in TNF-α levels, BV2 Microglia range [3]: 10^−1-100 nM | ChE inhibition in plasma, muscle, and spleen [5]: inhibited ChE | Emax (TNF-α, RAW 264.7 cells; [6]): 30 ± 3% | Reduction in TNF-α levels, RAW Macrophages range (TNF-α, RAW 264.7 cells; [7]): 10^−1-100 nM | IC50 [2]: 1.46 ± 0.05 µM | IC50 (BuChE): 0.3 µM | IC50 (Radical scavenging, Sin1): 4.55 ± 0.48 µM

CCN(C)C(=O)Oc1ccc2c(c1)NCC2CCC(=O)OC (stereo not shown) [AN-680, 3-(2-(Methoxycarbonyl)ethyl)-1-indoline-6-yl ethylmethylcarbamate hydrochloride]
Reduction in TNF-α levels, BV2 Microglia range [3]: None | Emax (TNF-α, RAW 264.7 cells; [6]): 34.5 ± 1.6% | IC50 [2]: 1.45 ± 0.05 µM | IC50 (AChE): 55.2 µM | IC50 (BuChE): 3.9 µM | IC50 (Radical scavenging, Sin1): 2.36 ± 0.05 µM

CCN(C)C(=O)Oc1cccc2[nH]cc(CCN)c12.Cl [AN-886, 2-(4-((ethyl(methyl)carbamoyl)oxy)-1H-indol-3-yl)ethanaminium hydrochloride]
Cardiomyocte cell line Conc′ >50% protection H2O2 Alamar blue [1, 8]: no effect ≦ 100 μM

CCN(C)C(=O)Oc1ccc2c(c1)N(CCC(=O)OC)CC2 [compound 1247, Methyl 3-(6-((Ethyl(methyl)carbamoyl)oxy)indolin-1-yl)propanoate hydrochloride]
IC50 [2]: 0.22 ± 0.04 µM | IC50 (BuChE): 6.8 µM | IC50 (Radical scavenging, Sin1): 2.18 ± 0.17 µM

COC(=O)CCC1CNc2cccc(OC(=O)N(C)c3ccc(OC)cc3)c21 (stereo not shown) [AN-819, 3-(3-methoxy-3-oxopropyl)-4-(((4-methoxyphenyl)(methyl)carbamoyl)oxy) indolin-1-ium hydrochloride]
ChE inhibition in plasma, muscle, and spleen [5]: inhibited ChE | Cardiomyocte cell line Conc′ >50% protection H2O2 Alamar blue ([1]; cells in nM): 0.001 to 1 nM | IC50 [2]: 19 ± 0.6 µM | IC50 (BuChE): 4.6 µM | IC50 (Radical scavenging, Sin1): 3.18 ± 0.2 µM

CCCCN(C)C(=O)Oc1ccc2c(c1)N(C)CC2CCC(=O)OC (stereo not shown) [AN-691, Methyl 3-(6-(butyl(methyl)carbamoyloxy)-1-methylindolin-3-yl)propanoate hydrochloride]
Cardiomyocte cell line Conc′ >50% protection H2O2 Alamar blue [1, 8]: 100000 nM | IC50 [2]: 6.27 ± 0.05 µM | IC50 (BuChE): 66.8 µM

O=C(O)CCC1CNc2cc(O)ccc21 (stereo not shown) [AN-848, 3-(6-Hydroxyindolin-3-yl) propanoic acid hydrochloride]
IC50 [2]: 2.34 ± 0.02 µM | IC50 (Radical scavenging, Sin1): 3.07 ± 0.66 µM

COC(=O)CCC1CNc2cc(O)ccc21 (stereo not shown) [AN-682, Methyl 3-(6-hydroxyindolin-3-yl)propanoate hydrochloride]
Reduction in TNF-α levels, BV2 Microglia % peak reduction [3]: 17.6 ± 1.3% | Reduction in TNF-α levels, BV2 Microglia range [3]: 10^−2-100 nM | Emax (TNF-α, RAW 264.7 cells; Mus musculus, RAW264.7, 6 h; read-out: Reduction in TNF-α levels, RAW Macrophages % peak reduction): 55 ± 1.3% | Reduction in TNF-α levels, RAW Macrophages range (TNF-α, RAW 264.7 cells; [7]): 10^−1-100 nM | IC50 [2]: 1.34 ± 0.01 µM | IC50 (Radical scavenging, Sin1): 2.33 ± 0.08 µM

CCN(C)C(=O)Oc1cccc2c1CCN2CCC(=O)OC.Cl [AN-1243, Methyl 3-(4-((Ethyl(methyl)carbamoyl)oxy)indolin-1-yl)propanoate Hydrochloride]
Reduction in TNF-α levels, BV2 Microglia % peak reduction [3]: 18.6 ± 1.0% | Reduction in TNF-α levels, BV2 Microglia range [3]: 100 nM | Emax (TNF-α, RAW 264.7 cells; [6]): 20.3 ± 5.4% | IC50 [2]: 0.3 ± 0.01 µM | IC50 (BuChE): 0.7 µM | IC50 (Radical scavenging, Sin1): 8.49 ± 0.003 µM

CCOC(=O)CCC1CNc2cccc(OC(=O)N(C)CC)c21.O=C(O)CC(O)(CC(=O)O)C(=O)O (stereo not shown) [AN-871]
Cardiomyocte cell line Conc′ >50% protection H2O2 Alamar blue [1, 8]: no effect ≦ 100 μM

COC(=O)CCC1CN(C)c2cccc(O)c21.Cl (stereo not shown) [AN-833, Methyl 3-(4-hydroxy-1-methylindolin-3-yl)propanoate hydrochloride]
Cardiomyocte cell line Conc′ >50% protection H2O2 Alamar blue [1, 8]: no effec ≦ 100 μM | IC50 [2]: 0.45 ± 0.03 µM

COC(=O)CCC1CN(C)c2cc(OC(=O)N(C)c3ccc(OC)cc3)ccc21 (stereo not shown) [AN-687, Methyl 3-(6-((4-methoxyphenyl)(methyl)carbamoyloxy)-1-methylindolin-3-yl)propanoate hydrochloride]
Cardiomyocte cell line Conc′ >50% protection H2O2 Alamar blue [1, 8]: 100 to 10000 nM | IC50 [2]: 2.24 ± 0.03 µM | IC50 (BuChE): 372 µM

O=C(O)CCC1CNc2cccc(O)c21 (stereo not shown) [AN-834, 3-(4-hydroxyindolin-3-yl)propanoic acid hydrochloride]
Cardiomyocte cell line Conc′ >50% protection H2O2 Alamar blue ([1]; cells in nM): 0.1 to 10 nM | IC50 [2]: 1.44 ± 0.04 µM
